The results in this text go back to patent US9079859B2, “Synthetic lethal targeting of glucose transport” (AUCKLAND UNISERVICES LIMITED, priority 2011, dated 2015).

One assay has as its system VHL-deficient cells. Description: Extracellular acidification rate, VHL-deficient cells. Type of assay: cell-based. Further details: dose or concentration left out as unconfirmed. The following applies: VHL-deficient cells vs control-treated; 48 hours. On the procedure:
HIF is important to adapting to low oxygen conditions through the transcription of many genes, including those involved in glucose metabolism. It was hypothesized that STF-31 might inhibit metabolic pathways, leading to necrotic cell death. To examine whether this compound alters glycolysis, intracellular lactate, which is rapidly converted from the glycolysis end product pyruvate, and extracellular acidification were measured. Baseline levels of glycolysis were lower in wild-type VHL cells compared to VHL-deficient cells (FIGS. 2, A and B), likely a result of the constitutive expression of HIF and subsequent overexpression of glucose transporters and glycolytic enzymes in the latter.

The subject of another assay is RCC4 cells. The assay can be described thus: Clonogenic survival, RCC4. Type of assay: cell-based. The following applies: STF-31 5 μM, media replaced, grown for a total of 10 days (FIG. 1D). The method, then: Cell Viability Assays. For 2,3-bis[2-methoxy-4-nitro-5-sulfophenyl]-2H-tetrazolium-5-carboxanilide (XTT) assays, five thousand cells were plated in 96-well plates. The next day, vehicle (DMSO) or drug was added by serial dilution. Four days later, media were aspirated, XTT solution (0.3 mg/ml of XTT (Sigma), […] N-methyl dibenxopyrazine methyl sulfate (Sigma) in phenol red-free media) was added, and the plates were incubated at 37° C. for 1-2 hours. Metabolism of XTT was quantified by measuring the absorbance at 450 nm. IC50s were calculated using linear interpolation. For clonogenic survival assays, three hundred cells were plated per 60 mm tissue culture dish. […] Colonies were fixed and stained with crystal violet (0.1% crystal violet in 95% ethanol). All conditions were measured in triplicate and each experiment was done in duplicate or triplicate. To determine necrosis, cells were treated with drug for a given time point. Media and cells were collected, centrifugated, and resuspended in 0.4% trypan blue (Invitrogen). Live and dead cells were counted on a hematocytometer.

For assay [1], the system named is RCC4/VHL cell clones overexpressing HIF. The assay can be described thus: Sensitivity of RCC4/VHL clones overexpressing HIF. Format: cell-based. The following applies: non-degradable, constitutively active HIF; two clones. The method, then:
The hypoxia-inducible factor (HIF) family of transcription factors are VHL targets and we next examined whether toxicity was HIF-dependent (Iliopoulos et al., Nat Med., 1: 822-826 (1995); Maxwell et al., Nature, 399:271-275 (1999); Zimmer et al., Mol Cancer Res., 2:89-95 (2004)). A non-degradable, constitutively active HIF was overexpressed in RCC4/VHL cells. Two individual HIF-overexpressing clones were tested for their sensitivity to STF-31 (Sutphin et al., Cancer Res 67:5896-5905 (2007)). […] Furthermore, the sensitivity of RCCs that lack functional VHL to STF-31 is directly linked to the aberrant up-regulation of HIF.

The next assay deals with T1, NEK2 (Homo sapiens, UniProt P51955).
T1 construct: purchased Millipore Kinase Profiler
T1 sequence (P51955 whole entry, species assumed): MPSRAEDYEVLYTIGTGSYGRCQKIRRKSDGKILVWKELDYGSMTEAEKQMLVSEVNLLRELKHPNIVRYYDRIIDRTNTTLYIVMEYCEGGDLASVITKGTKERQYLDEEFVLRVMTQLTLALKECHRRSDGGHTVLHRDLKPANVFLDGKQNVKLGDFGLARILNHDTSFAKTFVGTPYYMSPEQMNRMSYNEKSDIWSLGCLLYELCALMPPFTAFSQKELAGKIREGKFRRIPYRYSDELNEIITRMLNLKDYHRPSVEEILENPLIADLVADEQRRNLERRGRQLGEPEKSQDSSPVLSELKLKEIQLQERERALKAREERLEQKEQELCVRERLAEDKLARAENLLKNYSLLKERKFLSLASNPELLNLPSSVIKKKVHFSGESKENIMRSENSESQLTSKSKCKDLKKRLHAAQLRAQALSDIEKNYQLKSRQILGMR
Description: Kinase Profiler. Format: biochemical. To be noted: STF-31 10 μM. The method, then:
(§1) Cell Culture and Reagents. All cells were grown in DMEM+10% FCS. ACHN and ACHN shVHL were a kind gift from George V. Thomas (UCLA). HIF overexpressing clones were described previously (Sutphin et al., Cancer Res, 67:5896-5905 (2007)). Transfection of RNA oligos were performed with DnarmaFECT Reagent 1 (Dharmcon), according to manufacturer's directions. ON-TARGETplus SMART pools against HIF-1 R/ARNT were purchased from Dharmacon. Inducible shRNAmir to GLUT1 was purchased from Open Biosystems. GLUT1 was detected with anti-GLUT1 antibody from NeoMarkers/LabVision/Fisher. For immunofluorescent studies, GLUT1, GLUT2, and GLUT3 antibodies were purchased from R&D. Pyruvate/lactate levels and hexokinase activity were both measured by fluorometric assay (BioVision and Sigma-Aldrich, respectively). ATP levels were measured by bioluminescence assay (ATP Determination Kit from Molecular Probes/Invitrogen). In vitro kinase activities were performed by Millipore Kinase Profiler.

The next assay concerns the target AMPK. Description: Kinase Profiler. To be noted: STF-31 10 μM. Format: biochemical. The method, then: as §1
For the next assay, the target named is T2, CaMKI (Homo sapiens, UniProt Q14012).
T2 construct: purchased Millipore (Kinase Profiler service)
The assay can be described thus: Kinase Profiler. Format: biochemical. The following applies: STF-31 10 μM. The method, then:
as §1

Another assay addresses T3, IGF-1R (Homo sapiens, UniProt P08069).
T3 construct: purchased Millipore Kinase Profiler
Description: Kinase Profiler. Type of assay: biochemical. The following applies: STF-31 10 μM. On the procedure:
as §1

The target in another assay is T4, Abl (Homo sapiens, UniProt P00519).
T4 construct: purchased Millipore (Kinase Profiler service)
Description: Kinase Profiler. To be noted: STF-31 10 μM. Type of assay: biochemical. The method, then: as §1

The next assay has as its target T5, PKBα (Homo sapiens, UniProt P31749).
T5 construct: purchased Millipore Kinase Profiler
The assay can be described thus: Kinase Profiler. Type of assay: biochemical. The following applies: STF-31 10 μM. The method, then: as §1

The target of a further assay is T6, IRAK1 (Homo sapiens, UniProt P51617).
T6 construct: purchased Millipore Kinase Profiler
The assay can be described thus: Kinase Profiler. Format: biochemical. To be noted: STF-31 10 μM. On the procedure: as §1

The target of a further assay is T7, PKCδ (Homo sapiens, UniProt Q05655).
T7 construct: purchased Millipore (Kinase Profiler service)
T7 sequence (Q05655 whole entry): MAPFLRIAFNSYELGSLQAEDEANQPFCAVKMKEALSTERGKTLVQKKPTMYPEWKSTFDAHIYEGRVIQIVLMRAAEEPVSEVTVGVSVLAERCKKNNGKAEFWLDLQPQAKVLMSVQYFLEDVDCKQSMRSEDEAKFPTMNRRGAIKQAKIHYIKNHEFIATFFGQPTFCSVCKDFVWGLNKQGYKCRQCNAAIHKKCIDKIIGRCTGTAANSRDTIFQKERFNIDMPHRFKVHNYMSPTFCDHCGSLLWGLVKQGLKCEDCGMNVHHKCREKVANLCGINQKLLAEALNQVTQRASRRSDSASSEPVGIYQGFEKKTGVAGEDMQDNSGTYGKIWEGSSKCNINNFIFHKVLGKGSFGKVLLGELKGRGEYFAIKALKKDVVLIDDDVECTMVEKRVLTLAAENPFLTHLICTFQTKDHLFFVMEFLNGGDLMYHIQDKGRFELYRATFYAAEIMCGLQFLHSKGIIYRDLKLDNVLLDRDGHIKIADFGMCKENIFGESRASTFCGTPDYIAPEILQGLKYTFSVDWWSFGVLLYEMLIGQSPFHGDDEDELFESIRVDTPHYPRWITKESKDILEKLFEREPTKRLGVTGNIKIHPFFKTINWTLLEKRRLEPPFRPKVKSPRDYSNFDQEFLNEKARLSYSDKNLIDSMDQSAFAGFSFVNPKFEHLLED
The assay can be described thus: Kinase Profiler. Format: biochemical. To be noted: STF-31 10 μM. The method, then:
as §1

A further assay concerns the target T8, JAK2 (Homo sapiens, UniProt O60674).
T8 construct: purchased Millipore Kinase Profiler
The assay can be described thus: Kinase Profiler. Type of assay: biochemical. To be noted: STF-31 10 μM. The method, then:
as §1

Another assay has as its target T9, Plk3 (Homo sapiens, UniProt Q9H4B4).
T9 construct: purchased Millipore (Kinase Profiler service)
Description: Kinase Profiler. Type of assay: biochemical. The following applies: STF-31 10 μM. On the procedure:
as §1

In another assay the target is PI3K. The assay can be described thus: Kinase Profiler. To be noted: STF-31 10 μM. Format: biochemical. On the procedure: as §1
For another assay, the target named is T10, cKit(D816H) (Homo sapiens, UniProt P10721, D816H).
T10 construct: purchased Millipore (Kinase Profiler service)
T10 sequence (P10721 26-976 D816H): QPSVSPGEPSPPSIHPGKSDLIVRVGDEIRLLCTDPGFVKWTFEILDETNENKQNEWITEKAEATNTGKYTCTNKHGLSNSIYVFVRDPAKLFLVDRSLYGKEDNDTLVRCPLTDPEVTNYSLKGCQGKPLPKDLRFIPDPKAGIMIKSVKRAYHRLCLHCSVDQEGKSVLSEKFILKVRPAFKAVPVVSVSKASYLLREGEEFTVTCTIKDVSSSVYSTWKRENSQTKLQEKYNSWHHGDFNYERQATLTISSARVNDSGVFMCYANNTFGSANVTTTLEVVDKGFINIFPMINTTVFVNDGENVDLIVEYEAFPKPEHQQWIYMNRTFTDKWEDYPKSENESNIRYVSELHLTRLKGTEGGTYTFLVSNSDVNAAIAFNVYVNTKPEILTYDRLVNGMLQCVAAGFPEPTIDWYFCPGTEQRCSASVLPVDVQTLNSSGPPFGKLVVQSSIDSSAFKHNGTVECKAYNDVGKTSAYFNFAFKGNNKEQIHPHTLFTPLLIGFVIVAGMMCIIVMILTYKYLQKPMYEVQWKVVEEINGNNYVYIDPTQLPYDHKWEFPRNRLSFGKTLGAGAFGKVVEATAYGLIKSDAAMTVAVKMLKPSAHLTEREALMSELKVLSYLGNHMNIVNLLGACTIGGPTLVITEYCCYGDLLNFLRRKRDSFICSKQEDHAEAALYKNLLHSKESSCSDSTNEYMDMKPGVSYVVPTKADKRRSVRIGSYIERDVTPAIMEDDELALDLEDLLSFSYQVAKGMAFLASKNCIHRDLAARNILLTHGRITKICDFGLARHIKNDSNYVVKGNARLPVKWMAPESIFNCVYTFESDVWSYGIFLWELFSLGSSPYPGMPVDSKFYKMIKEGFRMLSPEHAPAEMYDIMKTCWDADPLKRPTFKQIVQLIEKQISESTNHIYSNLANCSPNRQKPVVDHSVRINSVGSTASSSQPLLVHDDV
The assay can be described thus: Kinase Profiler. Type of assay: biochemical. The following applies: STF-31 10 μM. The method, then: as §1

In the next assay the target is T11, PAK2 (Homo sapiens, UniProt Q13177).
T11 construct: purchased Millipore Kinase Profiler
T11 sequence (Q13177 whole entry, species assumed): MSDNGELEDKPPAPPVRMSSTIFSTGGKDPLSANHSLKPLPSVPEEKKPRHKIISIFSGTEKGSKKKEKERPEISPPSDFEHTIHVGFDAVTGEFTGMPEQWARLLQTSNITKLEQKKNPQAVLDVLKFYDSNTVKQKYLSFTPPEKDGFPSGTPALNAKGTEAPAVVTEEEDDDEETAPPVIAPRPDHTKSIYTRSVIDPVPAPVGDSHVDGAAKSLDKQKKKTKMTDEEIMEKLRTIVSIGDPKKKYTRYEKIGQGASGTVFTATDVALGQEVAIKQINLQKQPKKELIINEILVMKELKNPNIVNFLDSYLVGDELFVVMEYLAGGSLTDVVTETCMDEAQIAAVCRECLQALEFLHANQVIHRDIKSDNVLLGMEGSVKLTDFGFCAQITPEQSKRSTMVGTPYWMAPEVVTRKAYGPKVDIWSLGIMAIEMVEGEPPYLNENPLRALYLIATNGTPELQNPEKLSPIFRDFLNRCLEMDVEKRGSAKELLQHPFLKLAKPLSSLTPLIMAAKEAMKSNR
Description: Kinase Profiler. To be noted: STF-31 10 μM. Type of assay: biochemical. The method, then: as §1

In another assay the target is T12, MAPKAP-K2 (Homo sapiens, UniProt P49137).
T12 construct: purchased Millipore Kinase Profiler
The assay can be described thus: Kinase Profiler. Format: biochemical. To be noted: STF-31 10 μM. The method, then: as §1

Another assay has as its target T13, Fyn (Homo sapiens, UniProt P06241).
T13 construct: purchased Millipore Kinase Profiler
Description: Kinase Profiler. Type of assay: biochemical. The following applies: STF-31 10 μM. On the procedure: as §1

A further assay deals with T14, DYRK2 (Homo sapiens, UniProt Q92630).
T14 construct: purchased Millipore (Kinase Profiler service)
The assay can be described thus: Kinase Profiler. Format: biochemical. The following applies: STF-31 10 μM. The method, then: as §1

In the next assay the target is T15, MLK1 (Homo sapiens, UniProt P80192).
T15 construct: purchased Millipore Kinase Profiler
Description: Kinase Profiler. Type of assay: biochemical. The following applies: STF-31 10 μM. The method, then:
as §1

The subject of a further assay is GLUT1. The assay can be described thus: GLUT1 protein levels. Type of assay: cell-based. An excerpt:
Moreover, the levels of soluble GLUT1 protein were also unaffected by STF-31 (FIG. 8D). […] Active analogs, which selectively kill VHL-deficient cells through glucose uptake, docked within the central channel of GLUT1 (FIG. 3F).

Another assay has as its system RCC4/VHL. Description: RCC panel sensitivity (Table 2). Type of assay: cell-based. The following applies: VHL wild-type.

T8 sequence (O60674 whole entry, species assumed): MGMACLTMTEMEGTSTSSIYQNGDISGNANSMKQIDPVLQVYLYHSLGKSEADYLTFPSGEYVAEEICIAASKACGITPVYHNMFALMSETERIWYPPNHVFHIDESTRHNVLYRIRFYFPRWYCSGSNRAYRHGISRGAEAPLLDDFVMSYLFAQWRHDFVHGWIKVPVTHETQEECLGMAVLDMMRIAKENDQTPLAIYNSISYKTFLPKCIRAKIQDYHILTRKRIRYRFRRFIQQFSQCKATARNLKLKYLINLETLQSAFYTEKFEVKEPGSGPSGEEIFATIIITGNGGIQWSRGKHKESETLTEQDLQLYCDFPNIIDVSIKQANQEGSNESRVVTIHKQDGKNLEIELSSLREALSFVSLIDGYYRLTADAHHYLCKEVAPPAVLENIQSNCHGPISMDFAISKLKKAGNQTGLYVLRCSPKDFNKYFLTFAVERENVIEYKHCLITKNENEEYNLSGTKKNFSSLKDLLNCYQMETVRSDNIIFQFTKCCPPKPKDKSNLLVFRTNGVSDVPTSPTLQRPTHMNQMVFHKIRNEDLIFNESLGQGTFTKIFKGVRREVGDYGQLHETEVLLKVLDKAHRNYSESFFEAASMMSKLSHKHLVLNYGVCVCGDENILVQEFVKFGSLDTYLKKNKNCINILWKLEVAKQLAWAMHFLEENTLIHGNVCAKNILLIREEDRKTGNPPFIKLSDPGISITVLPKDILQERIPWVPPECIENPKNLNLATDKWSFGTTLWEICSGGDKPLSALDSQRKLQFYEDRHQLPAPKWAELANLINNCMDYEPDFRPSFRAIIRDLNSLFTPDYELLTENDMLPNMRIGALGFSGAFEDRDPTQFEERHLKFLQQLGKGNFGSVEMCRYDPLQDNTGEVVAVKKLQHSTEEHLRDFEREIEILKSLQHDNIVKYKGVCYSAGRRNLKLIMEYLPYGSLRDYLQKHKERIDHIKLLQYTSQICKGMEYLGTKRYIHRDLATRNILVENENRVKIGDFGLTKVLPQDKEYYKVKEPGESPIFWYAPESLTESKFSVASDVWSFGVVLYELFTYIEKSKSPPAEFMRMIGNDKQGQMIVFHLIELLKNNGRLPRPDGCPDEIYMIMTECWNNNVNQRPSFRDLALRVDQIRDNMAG
T3 sequence (P08069 31-1367, species assumed): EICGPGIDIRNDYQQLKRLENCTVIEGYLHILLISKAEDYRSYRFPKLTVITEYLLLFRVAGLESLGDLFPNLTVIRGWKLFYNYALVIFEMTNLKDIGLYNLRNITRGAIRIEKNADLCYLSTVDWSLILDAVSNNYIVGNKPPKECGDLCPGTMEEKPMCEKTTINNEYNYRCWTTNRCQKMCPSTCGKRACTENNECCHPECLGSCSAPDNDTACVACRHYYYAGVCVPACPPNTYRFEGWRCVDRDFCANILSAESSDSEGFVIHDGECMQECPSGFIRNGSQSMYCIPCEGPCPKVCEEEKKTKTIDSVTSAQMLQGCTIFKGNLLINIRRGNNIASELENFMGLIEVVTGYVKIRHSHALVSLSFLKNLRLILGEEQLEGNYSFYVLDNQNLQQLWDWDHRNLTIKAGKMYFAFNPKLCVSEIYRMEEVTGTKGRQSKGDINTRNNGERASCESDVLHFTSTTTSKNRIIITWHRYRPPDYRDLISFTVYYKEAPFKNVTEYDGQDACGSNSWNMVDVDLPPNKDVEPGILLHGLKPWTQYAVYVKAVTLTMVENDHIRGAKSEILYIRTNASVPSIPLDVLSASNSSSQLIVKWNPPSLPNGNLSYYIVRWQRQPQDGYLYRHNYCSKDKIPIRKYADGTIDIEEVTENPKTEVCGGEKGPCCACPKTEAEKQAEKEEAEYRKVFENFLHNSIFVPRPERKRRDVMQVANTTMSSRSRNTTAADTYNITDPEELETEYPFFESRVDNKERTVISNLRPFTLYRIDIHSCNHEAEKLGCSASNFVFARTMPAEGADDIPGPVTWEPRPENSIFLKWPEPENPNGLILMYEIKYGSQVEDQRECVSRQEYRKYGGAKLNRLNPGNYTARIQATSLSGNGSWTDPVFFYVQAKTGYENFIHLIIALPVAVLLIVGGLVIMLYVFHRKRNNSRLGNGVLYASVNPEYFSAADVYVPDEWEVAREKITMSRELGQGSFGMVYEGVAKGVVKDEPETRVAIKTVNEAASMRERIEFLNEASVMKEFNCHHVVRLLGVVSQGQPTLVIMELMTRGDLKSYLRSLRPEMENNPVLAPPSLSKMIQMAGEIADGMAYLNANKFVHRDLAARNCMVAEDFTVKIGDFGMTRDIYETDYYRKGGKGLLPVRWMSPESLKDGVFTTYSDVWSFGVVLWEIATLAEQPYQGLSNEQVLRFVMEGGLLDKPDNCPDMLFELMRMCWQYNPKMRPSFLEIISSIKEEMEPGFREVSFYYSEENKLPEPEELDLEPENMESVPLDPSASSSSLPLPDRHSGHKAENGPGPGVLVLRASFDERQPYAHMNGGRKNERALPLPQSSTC

As for `CC(C)(C)c1ccc(S(=O)(=O)NCc2ccc(C(=O)Nc3cccnc3)cc2)cc1` [STF-31], the “inhibition of extracellular acidification” value with VHL-deficient cells is on record as “about 60%”. Besides, the “RCC4 cells killed following treatment” value with RCC4 cells was “Approximately 80%”. In [1], the “effect of ectopic HIF expression in wild-type VHL cells on response to STF-31” value is listed as “sensitized”. Moreover, the “Kinase response to STF-31” value at NEK2 stood at 103; at AMPK, 92; at CaMKI it was 87; at IGF-1R, 108; at Abl it was 108; at PKBα, 99. Further, the “Kinase response to STF-31” value was 105 at IRAK1; 116 at PKCδ; 113 on JAK2; 104 on Plk3; 97 at PI3K; 99 on cKit(D816H). The “Kinase response to STF-31” value at PAK2 amounted to 97; at MAPKAP-K2 it was 87; on Fyn, 91; at DYRK2, 94; on MLK1 it was 97. Further, the “levels of soluble GLUT1 protein” value in the assay with GLUT1 (soluble and insoluble fractions) was “unaffected”. Further, the GLUT1 protein levels result with GLUT1 (time- or concentration-dependent (1.25-10 μM, 3 days)) is recorded as “did not affect”. The “3-series sensitivity (sensitivity to STF-31)” value in the assay with RCC4/VHL was “No”.
